Experimental data as given in patent publication US8574633B2 (priority 2004, dated 2013).
“And” between values parts separate entries of the source, which are not always exact repeats. Equal values may be shown once.

Test system: ICR mice
Protocol: 2.experimental animals: ICR mice, SPF, male and female, body weight 18-20 g, all bought from Shanghai SIPPR/BK Experimental Animal Co. Laboratory animal license No. SCXK (Hu)2003-0002
3. experimental conditions: SPF experimental environment. Grouped the experimental mice 5 per cage and bred. The breeding temperature was 22±2° C., the humidity was 60-70% and Laboratory animal license number was SCXK (Hu)2002-0035. The mice were bred with the solid high pressure forage. Fasted 12 hours before the test but no water-deprivation.
After administration, the mice were liberated to diet. Observed the mice once immediately, every morning and every afternoon for 7 continuous days. The mice were observed once a day from the 8th day. Record the mortality and toxic reaction of the experimental animals.

## C/C=C1\[C@H]2C=C(C)C[C@]1(N)c1ccc(=O)[nH]c1C2 [Control medicine, Huperzine A]
HupA part of the LD50 dose
  content of HupA at the LD50 of the composition: 6.03 mg/kg
ICR mice, intragastric, simplified probit method, confidence limit 95%
  LD50: 6.03 ± 1.46 mg/kg and 6.03 mg/kg
